In the supplement of paper PMC10307832:

Tests used:
Assay in all cases: relative viability (nuclei count vs DMSO), 5 days (fraction); higher = more cells survive
[1] = system: 201T
Summary of the method: (§1)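 Relative viability is defined as nuclei in treated wells over nuclei in vehicle wells. Duplicate plates were run and medians reported. Lung cancer cell lines in 1536-well plates were dosed by pin tool one day after seeding, with one drug or with a fixed anchor-drug dose plus five library-drug doses (not always all listed) in √10 steps, and nuclei were counted after 5 days.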

[2] = system: COR-L 105
Summary of the method: as §1

[3] = system: ChaGo-K-1
Summary of the method: as §1

[4] = system: EKVX
Summary of the method: as §1

[5] = system: H3255
Summary of the method: as §1

[6] = system: HARA
Summary of the method: as §1

[7] = system: HCC-827
Summary of the method: as §1

[8] = system: HOP-62
Summary of the method: as §1

[9] = system: LCLC-103H
Summary of the method: as §1

[10] = system: LOU-NH91
Summary of the method: as §1

[11] = system: NCI-H1975
Summary of the method: as §1

[12] = system: NCI-H2126
Summary of the method: as §1

[13] = system: NCI-H2228
Summary of the method: as §1

[14] = system: NCI-H23
Summary of the method: as §1

[15] = system: NCI-H2405
Summary of the method: as §1

[16] = system: NCI-H3122
Summary of the method: as §1

[17] = system: NCI-H650
Summary of the method: as §1

[18] = system: NCI-H661
Summary of the method: as §1

[19] = system: NCI-H727
Summary of the method: as §1

[20] = system: PC-3 [JPC-3]
Summary of the method: as §1

[21] = system: SK-LU-1
Summary of the method: as §1

[22] = system: SW 900
Summary of the method: as §1

[23] = system: NCI-H596
Summary of the method: as §1

CN1CCN(CCOc2cc(OC3CCOCC3)c3c(Nc4c(Cl)ccc5c4OCO5)ncnc3c2)CC1 [Saracatinib] + CC(=O)c1c(C)c2cnc(Nc3ccc(N4CCNCC4)cn3)nc2n(C2CCCC2)c1=O [Palbociclib] (partner 0.5 µM)
relative viability ([1]; first compound 0.02 µM): 0.358
relative viability ([1]; first compound 0.2 µM): 0.311
relative viability ([1]; first compound 0.6325 µM): 0.323
relative viability ([1]; first compound 2 µM): 0.26
relative viability ([2]; first compound 0.02 µM): 0.384
relative viability ([2]; first compound 0.2 µM): 0.332
relative viability ([2]; first compound 0.6325 µM): 0.38
relative viability ([2]; first compound 2 µM): 0.321
relative viability ([3]; first compound 0.02 µM): 0.896
relative viability ([3]; first compound 0.2 µM): 0.533
relative viability ([3]; first compound 0.6325 µM): 0.92
relative viability ([3]; first compound 2 µM): 0.865
relative viability ([4]; first compound 0.02 µM): 0.38
relative viability ([4]; first compound 0.6325 µM): 0.306
relative viability ([4]; first compound 2 µM): 0.146
relative viability ([5]; first compound 0.02 µM): 0.329
relative viability ([5]; first compound 0.2 µM): 0.31
relative viability ([5]; first compound 0.6325 µM): 0.336
relative viability ([5]; first compound 2 µM): 0.297
relative viability ([6]; first compound 0.02 µM): 0.234
relative viability ([6]; first compound 0.2 µM): 0.208
relative viability ([6]; first compound 0.6325 µM): 0.269
relative viability ([6]; first compound 2 µM): 0.161
relative viability ([7]; first compound 0.02 µM): 0.507
relative viability ([7]; first compound 0.2 µM): 0.314
relative viability ([7]; first compound 0.6325 µM): 0.185
relative viability ([7]; first compound 2 µM): 0.167
relative viability ([8]; first compound 0.02 µM): 0.452
relative viability ([8]; first compound 0.2 µM): 0.396
relative viability ([8]; first compound 0.6325 µM): 0.459
relative viability ([8]; first compound 2 µM): 0.477
relative viability ([9]; first compound 0.02 µM): 0.498
relative viability ([9]; first compound 0.2 µM): 0.389
relative viability ([9]; first compound 0.6325 µM): 0.479
relative viability ([9]; first compound 2 µM): 0.461
relative viability ([10]; first compound 0.02 µM): 0.487
relative viability ([10]; first compound 0.2 µM): 0.551
relative viability ([10]; first compound 0.6325 µM): 0.569
relative viability ([10]; first compound 2 µM): 0.49
relative viability ([11]; first compound 0.02 µM): 0.584
relative viability ([11]; first compound 0.2 µM): 0.603
relative viability ([11]; first compound 0.6325 µM): 0.718
relative viability ([11]; first compound 2 µM): 0.441
relative viability ([12]; first compound 0.02 µM): 0.358
relative viability ([12]; first compound 0.2 µM): 0.344
relative viability ([12]; first compound 0.6325 µM): 0.363
relative viability ([12]; first compound 2 µM): 0.349
relative viability ([13]; first compound 0.02 µM): 0.955
relative viability ([13]; first compound 0.2 µM): 0.649
relative viability ([13]; first compound 0.6325 µM): 0.805
relative viability ([13]; first compound 2 µM): 0.557
relative viability ([14]; first compound 0.02 µM): 0.526
relative viability ([14]; first compound 0.6325 µM): 0.573
relative viability ([14]; first compound 2 µM): 0.403
relative viability ([15]; first compound 0.02 µM): 0.567
relative viability ([15]; first compound 0.2 µM): 0.45
relative viability ([15]; first compound 0.6325 µM): 0.44
relative viability ([15]; first compound 2 µM): 0.358
relative viability ([16]; first compound 0.02 µM): 0.194
relative viability ([16]; first compound 0.2 µM): 0.174
relative viability ([16]; first compound 0.6325 µM): 0.199
relative viability ([16]; first compound 2 µM): 0.185
relative viability ([17]; first compound 0.02 µM): 0.336
relative viability ([17]; first compound 0.2 µM): 0.314
relative viability ([17]; first compound 0.6325 µM): 0.33
relative viability ([17]; first compound 2 µM): 0.307
relative viability ([18]; first compound 0.02 µM): 0.393
relative viability ([18]; first compound 0.2 µM): 0.359
relative viability ([18]; first compound 0.6325 µM): 0.395
relative viability ([18]; first compound 2 µM): 0.306
relative viability ([19]; first compound 0.02 µM): 0.604
relative viability ([19]; first compound 0.2 µM): 0.692
relative viability ([19]; first compound 0.6325 µM): 0.674
relative viability ([19]; first compound 2 µM): 0.551
relative viability ([20]; first compound 0.02 µM): 0.568
relative viability ([20]; first compound 0.2 µM): 0.507
relative viability ([20]; first compound 0.6325 µM): 0.532
relative viability ([20]; first compound 2 µM): 0.561
relative viability ([21]; first compound 0.02 µM): 0.517
relative viability ([21]; first compound 0.2 µM): 0.297
relative viability ([21]; first compound 0.6325 µM): 0.328
relative viability ([21]; first compound 2 µM): 0.254
relative viability ([22]; first compound 0.02 µM): 0.548
relative viability ([22]; first compound 0.2 µM): 0.432
relative viability ([22]; first compound 0.6325 µM): 0.383
relative viability ([22]; first compound 2 µM): 0.293

CN1CCN(CCOc2cc(OC3CCOCC3)c3c(Nc4c(Cl)ccc5c4OCO5)ncnc3c2)CC1 [Saracatinib] + Nc1nc2[nH]cc(CCc3ccc(C(=O)N[C@@H](CCC(=O)O)C(=O)O)cc3)c2c(=O)[nH]1 [Pemetrexed] (partner 0.2 µM)
relative viability ([1]; first compound 0.02 µM): 0.312
relative viability ([1]; first compound 0.2 µM): 0.337
relative viability ([1]; first compound 0.6325 µM): 0.341
relative viability ([1]; first compound 2 µM): 0.336
relative viability ([2]; first compound 0.02 µM): 1.2
relative viability ([2]; first compound 0.2 µM): 1.21
relative viability ([2]; first compound 0.6325 µM): 1.26
relative viability ([2]; first compound 2 µM): 0.717
relative viability ([3]; first compound 0.02 µM): 0.28
relative viability ([3]; first compound 0.2 µM): 0.254
relative viability ([3]; first compound 0.6325 µM): 0.26
relative viability ([3]; first compound 2 µM): 0.269
relative viability ([4]; first compound 0.02 µM): 0.429
relative viability ([4]; first compound 0.6325 µM): 0.498
relative viability ([4]; first compound 2 µM): 0.369
relative viability ([5]; first compound 0.02 µM): 0.591
relative viability ([5]; first compound 0.2 µM): 0.514
relative viability ([5]; first compound 0.6325 µM): 0.521
relative viability ([5]; first compound 2 µM): 0.421
relative viability ([6]; first compound 0.02 µM): 0.268
relative viability ([6]; first compound 0.2 µM): 0.266
relative viability ([6]; first compound 0.6325 µM): 0.191
relative viability ([6]; first compound 2 µM): 0.213
relative viability ([7]; first compound 0.02 µM): 0.286
relative viability ([7]; first compound 0.2 µM): 0.158
relative viability ([7]; first compound 0.6325 µM): 0.189
relative viability ([7]; first compound 2 µM): 0.168
relative viability ([8]; first compound 0.02 µM): 0.377
relative viability ([8]; first compound 0.2 µM): 0.33
relative viability ([8]; first compound 0.6325 µM): 0.332
relative viability ([8]; first compound 2 µM): 0.375
relative viability ([9]; first compound 0.02 µM): 0.444
relative viability ([9]; first compound 0.2 µM): 0.329
relative viability ([9]; first compound 0.6325 µM): 0.451
relative viability ([9]; first compound 2 µM): 0.48
relative viability ([10]; first compound 0.02 µM): 0.397
relative viability ([10]; first compound 0.2 µM): 0.417
relative viability ([10]; first compound 0.6325 µM): 0.472
relative viability ([10]; first compound 2 µM): 0.457
relative viability ([11]; first compound 0.02 µM): 0.276
relative viability ([11]; first compound 0.2 µM): 0.265
relative viability ([11]; first compound 0.6325 µM): 0.275
relative viability ([11]; first compound 2 µM): 0.253
relative viability ([12]; first compound 0.02 µM): 0.772
relative viability ([12]; first compound 0.2 µM): 0.664
relative viability ([12]; first compound 0.6325 µM): 0.659
relative viability ([12]; first compound 2 µM): 0.558
relative viability ([13]; first compound 0.02 µM): 0.355
relative viability ([13]; first compound 0.2 µM): 0.342
relative viability ([13]; first compound 0.6325 µM): 0.332
relative viability ([13]; first compound 2 µM): 0.266
relative viability ([14]; first compound 0.02 µM): 0.683
relative viability ([14]; first compound 0.6325 µM): 0.613
relative viability ([14]; first compound 2 µM): 0.519
relative viability ([15]; first compound 0.02 µM): 0.995
relative viability ([15]; first compound 0.2 µM): 0.671
relative viability ([15]; first compound 0.6325 µM): 0.843
relative viability ([15]; first compound 2 µM): 0.488
relative viability ([16]; first compound 0.02 µM): 0.195
relative viability ([16]; first compound 0.2 µM): 0.169
relative viability ([16]; first compound 0.6325 µM): 0.197
relative viability ([16]; first compound 2 µM): 0.169
relative viability ([23]; first compound 0.02 µM): 0.522
relative viability ([23]; first compound 0.2 µM): 0.49
relative viability ([23]; first compound 0.6325 µM): 0.471
relative viability ([23]; first compound 2 µM): 0.479
relative viability ([17]; first compound 0.02 µM): 0.962
relative viability ([17]; first compound 0.2 µM): 0.903
relative viability ([17]; first compound 0.6325 µM): 0.884
relative viability ([17]; first compound 2 µM): 0.874
relative viability ([18]; first compound 0.02 µM): 0.942
relative viability ([18]; first compound 0.2 µM): 0.84
relative viability ([18]; first compound 0.6325 µM): 0.846
relative viability ([18]; first compound 2 µM): 0.699
relative viability ([20]; first compound 0.02 µM): 1.04
relative viability ([20]; first compound 0.2 µM): 0.709
relative viability ([20]; first compound 0.6325 µM): 0.656
relative viability ([20]; first compound 2 µM): 0.469
relative viability ([21]; first compound 0.02 µM): 0.918
relative viability ([21]; first compound 0.2 µM): 0.868
relative viability ([21]; first compound 0.6325 µM): 0.654
relative viability ([21]; first compound 2 µM): 0.557
relative viability ([22]; first compound 0.02 µM): 0.559
relative viability ([22]; first compound 0.2 µM): 0.361
relative viability ([22]; first compound 0.6325 µM): 0.506
relative viability ([22]; first compound 2 µM): 0.408
